Assay results reported in patent publication US9815839B2, “N-(1-(substituted-phenyl)ethyl)-9H-purin-6-amines as PI3K inhibitors” (Incyte Corporation, priority 2010, dated 2017).

Key:
PI3Kδ (p110δ/p85α) = target: T1, PI3Kδ (p110δ/p85α) (Homo sapiens, UniProt O00329); assay: PI3Kδ scintillation proximity assay; format: biochemical; conditions: 20 μM ATP, 4 nM PI3Kδ
T1 construct: purchased Millipore (Bedford, Mass.)
Method in brief: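 Radiometric SPA: product captured on WGA beads after EDTA quench and counted, IC50 fitted against log inhibitor concentration. Reactions ran 210 min at room temperature with 4 nM PI3Kδ (p110δ/p85α), 20 μM each PIP2 and ATP plus 33P-ATP, pH 6.7 MOPS buffer, 0.5% DMSO final.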

[1] = system: Pfeiffer cell line (diffuse large B cell lymphoma); assay: Pfeiffer cell proliferation assay; format: cell-based; conditions: Homo sapiens, Pfeiffer, Pfeiffer cells, 3-4 days plus 12 hours [3H]-thymidine incorporation
Experimental: Example C: Pfeiffer Cell Proliferation Assay
Pfeiffer cell line (diffuse large B cell lymphoma) was purchased from ATCC (Manassas, Va.) and maintained in the culture medium recommended (RPMI and 10% FBS). To measure the anti-proliferation activity of the compounds, the Pfeiffer cells were plated with the culture medium (2×10^3 cells/well/per 200 μl) into 96-well ultra-low binding plates (Corning, Corning, N.Y.), in the presence or absence of a concentration range of test compounds. After 3-4 days, [^3H]-thymidine (1 μCi/well) (PerkinElmer, Boston, Mass.) in PBS was then added to the cell culture for an additional 12 hours before the incorporated radioactivity was separated by filtration with water through GF/B filters (Packard Bioscience, Meridenj, Conn.) and measured by liquid scintillation counting with a TopCount (Packard Bioscience).

T1 sequence (O00329 whole entry, species assumed): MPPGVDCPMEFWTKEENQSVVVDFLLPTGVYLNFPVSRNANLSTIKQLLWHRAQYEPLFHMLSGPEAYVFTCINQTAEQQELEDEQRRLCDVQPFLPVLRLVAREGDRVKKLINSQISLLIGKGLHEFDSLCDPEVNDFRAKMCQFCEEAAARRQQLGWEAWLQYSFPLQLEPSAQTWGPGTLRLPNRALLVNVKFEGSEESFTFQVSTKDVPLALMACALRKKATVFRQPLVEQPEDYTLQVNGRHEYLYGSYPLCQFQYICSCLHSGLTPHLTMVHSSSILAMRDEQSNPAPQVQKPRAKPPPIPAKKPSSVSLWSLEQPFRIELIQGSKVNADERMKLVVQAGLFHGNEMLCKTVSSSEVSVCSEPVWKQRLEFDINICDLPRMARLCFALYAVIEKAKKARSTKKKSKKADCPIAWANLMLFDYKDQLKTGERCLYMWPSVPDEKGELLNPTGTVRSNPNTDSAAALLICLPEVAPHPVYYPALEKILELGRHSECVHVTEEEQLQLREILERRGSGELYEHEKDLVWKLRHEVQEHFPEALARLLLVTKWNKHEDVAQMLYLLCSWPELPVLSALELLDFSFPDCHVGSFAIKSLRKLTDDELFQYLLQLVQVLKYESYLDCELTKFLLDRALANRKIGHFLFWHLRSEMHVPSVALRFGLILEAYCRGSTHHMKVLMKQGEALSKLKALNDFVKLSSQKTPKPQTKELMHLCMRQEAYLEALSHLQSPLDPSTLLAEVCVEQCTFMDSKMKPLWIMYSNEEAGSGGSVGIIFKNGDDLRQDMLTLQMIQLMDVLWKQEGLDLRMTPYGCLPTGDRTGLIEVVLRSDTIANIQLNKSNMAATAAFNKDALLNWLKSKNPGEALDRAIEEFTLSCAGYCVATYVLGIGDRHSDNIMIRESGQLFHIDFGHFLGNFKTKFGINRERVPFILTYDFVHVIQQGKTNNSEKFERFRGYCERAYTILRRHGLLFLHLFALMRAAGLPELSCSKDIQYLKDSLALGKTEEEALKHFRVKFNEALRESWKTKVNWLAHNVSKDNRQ
T1 sequence (P27986 whole entry partner, species assumed): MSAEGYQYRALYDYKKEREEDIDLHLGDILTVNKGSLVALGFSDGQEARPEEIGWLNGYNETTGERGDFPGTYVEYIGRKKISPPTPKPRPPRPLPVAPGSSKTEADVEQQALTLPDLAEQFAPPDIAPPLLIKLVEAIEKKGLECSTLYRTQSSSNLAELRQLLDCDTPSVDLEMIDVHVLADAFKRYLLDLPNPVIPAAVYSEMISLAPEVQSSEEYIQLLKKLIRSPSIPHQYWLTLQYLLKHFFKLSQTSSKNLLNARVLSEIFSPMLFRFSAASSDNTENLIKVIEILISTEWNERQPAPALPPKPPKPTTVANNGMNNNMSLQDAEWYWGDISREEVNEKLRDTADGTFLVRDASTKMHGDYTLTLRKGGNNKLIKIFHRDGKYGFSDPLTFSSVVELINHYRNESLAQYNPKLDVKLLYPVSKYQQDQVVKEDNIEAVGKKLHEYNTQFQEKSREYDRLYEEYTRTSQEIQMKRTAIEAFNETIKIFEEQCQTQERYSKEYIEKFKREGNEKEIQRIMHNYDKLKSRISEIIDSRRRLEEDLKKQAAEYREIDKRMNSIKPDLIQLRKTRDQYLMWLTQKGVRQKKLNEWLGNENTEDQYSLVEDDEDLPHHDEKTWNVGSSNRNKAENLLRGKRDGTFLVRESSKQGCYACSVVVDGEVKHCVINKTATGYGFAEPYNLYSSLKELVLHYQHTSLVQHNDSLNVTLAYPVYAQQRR

IC50 (PI3Kδ (p110δ/p85α)) [nM]	IC50 [1] [nM]	SMILES
< 50	100 to 500	COC(=O)N(C(=O)OC)c1c(C)c(Cl)cc(C(C)Nc2ncnc3[nH]cnc23)c1-c1cccc(F)c1 (centres unmarked) [Example 10, Dimethyl {4-chloro-3′-fluoro-3-methyl-6-[1-(9H-purin-6-ylamino)ethyl]biphenyl-2-yl}imidodicarbonate]
< 50	< 100	Cc1c(Cl)cc(C(C)Nc2ncnc3[nH]cnc23)c(-c2cccc(F)c2)c1-n1cnnc1 (centres unmarked) [Example 11, N-{1-[4-chloro-3′-fluoro-5-methyl-6-(4H-1,2,4-triazol-4-yl)biphenyl-2-yl]ethyl}-9H-purin-6-amine]
< 50	< 100	Cc1c(Cl)cc(C(C)Nc2ncnc3[nH]cnc23)c(-c2cccc(F)c2)c1N(S(C)(=O)=O)S(C)(=O)=O (centres unmarked) [Example 12, N-{4-chloro-3′-fluoro-3-methyl-6-[1-(9H-purin-6-ylamino)ethyl]biphenyl-2-yl}-N-(methylsulfonyl)methanesulfonamide]
< 50	< 100	Cc1c(Cl)cc(C(C)Nc2ncnc3[nH]cnc23)c(-c2ccccc2)c1-c1cc(F)nc(F)c1 (centres unmarked) [Example 13, N-{1-[4-chloro-6-(2,6-difluoropyridin-4-yl)-5-methylbiphenyl-2-yl]ethyl}-9H-purin-6-amine]
< 50	< 100	Cc1c(Cl)cc(C(C)Nc2ncnc3[nH]cnc23)c(-c2ccccc2)c1-c1ccc(S(C)(=O)=O)cc1 (centres unmarked) [Example 14, N-{1-[5′-chloro-6′-methyl-4-(methylsulfonyl)-1,1′:2′,1″-terphenyl-3′-yl]ethyl}-9H-purin-6-amine]
< 50	< 100	Cc1c(Cl)cc(C(C)Nc2ncnc3[nH]cnc23)c(-c2ccccc2)c1-c1cnc(N(C)C)nc1 (centres unmarked) [Example 15, N-(1-{4-chloro-6-[2-(dimethylamino)pyrimidin-5-yl]-5-methylbiphenyl-2-yl}ethyl)-9H-purin-6-amine]
< 50	< 100	Cc1c(Cl)cc(C(C)Nc2ncnc3[nH]cnc23)c(-c2ccccc2)c1-c1ccc(C(=O)NC2CC2)cc1 (centres unmarked) [Example 16, 5′-chloro-N-cyclopropyl-6′-methyl-3′-[1-(9H-purin-6-ylamino)ethyl]-1,1′:2′,1″-terphenyl-4-carboxamide]
< 50	< 100	Cc1c(Cl)cc(C(C)Nc2ncnc3[nH]cnc23)c(-c2ccccc2)c1-c1cnc(N)nc1 (centres unmarked) [Example 17, N-{1-[6-(2-aminopyrimidin-5-yl)-4-chloro-5-methylbiphenyl-2-yl]ethyl}-9H-purin-6-amine]
250 to 500	100 to 500	COc1c(C(C)Nc2ncnc3[nH]cnc23)cc(Cl)c(C)c1N1CCCC1=O (centres unmarked) [Example 18, 1-{3-Chloro-6-methoxy-2-methyl-5-[1-(9H-purin-6-ylamino)ethyl]phenyl}pyrrolidin-2-one]
< 50	< 100	Cc1c(Cl)cc(C(C)Nc2ncnc3[nH]cnc23)c(-c2cc(F)cc(F)c2)c1C(N)=O (centres unmarked) [Example 19, 4-Chloro-3′,5′-difluoro-3-methyl-6-[1-(9H-purin-6-ylamino)ethyl]biphenyl-2-carboxamide]
< 50	100 to 500	COc1c(C(C)Nc2ncnc3[nH]cnc23)cc(Cl)c(C)c1-c1cnc(N(C)C)nc1 (centres unmarked) [Example 20, N-(1-{5-chloro-3-[2-(dimethylamino)pyrimidin-5-yl]-2-methoxy-4-methylphenyl}ethyl)-9H-purin-6-amine]
< 50	< 100	COc1c(C(C)Nc2ncnc3[nH]cnc23)cc(Cl)c(C)c1-c1ccnn1C (centres unmarked) [Example 21, N-{1-[5-chloro-2-methoxy-4-methyl-3-(1-methyl-1H-pyrazol-5-yl)phenyl]ethyl}-9H-purin-6-amine]
< 50	< 100	COc1c(C(C)Nc2ncnc3[nH]cnc23)cc(Cl)c(C)c1-c1c(C)noc1C (centres unmarked) [Example 22, N-{1-[5-chloro-3-(3,5-dimethylisoxazol-4-yl)-2-methoxy-4-methylphenyl]ethyl]-9H-purin-6-amine]
< 50	< 100	COc1ncc(-c2c(C)c(Cl)cc(C(C)Nc3ncnc4[nH]cnc34)c2OC)cn1 (centres unmarked) [Example 23, N-{1-[5-chloro-2-methoxy-3-(2-methoxypyrimidin-5-yl)-4-methylphenyl]ethyl}-9H-purin-6-amine]
< 50	100 to 500	Cc1c(Cl)cc(C(C)Nc2ncnc3[nH]cnc23)c(-c2ccccc2)c1-c1ccc(C#N)cc1 (centres unmarked) [Example 24, 5′-chloro-6′-methyl-3′-[1-(9H-purin-6-ylamino)ethyl]-1,1′:2′,1″-terphenyl-4-carbonitrile]
< 50	< 100	COc1ncc(-c2c(C)c(Cl)cc(C(C)Nc3ncnc4[nH]cnc34)c2-c2ccccc2)cn1 (centres unmarked) [Example 25, N-{1-[4-chloro-6-(2-methoxypyrimidin-5-yl)-5-methylbiphenyl-2-yl]ethyl}-9H-purin-6-amine]

IC50 (PI3Kδ (p110δ/p85α)) [nM]	IC50 [1] [nM]	SMILES
< 50	< 100	CC(=O)Nc1ccc(-c2c(C)c(Cl)cc(C(C)Nc3ncnc4[nH]cnc34)c2-c2ccccc2)cc1 (centres unmarked) [Example 26, N-{5′-chloro-6′-methyl-3′-[1-(9H-purin-6-ylamino)ethyl]-1,1′:2′,1″-terphenyl-4-yl}acetamide]
< 50	100 to 500	COc1c(C(C)Nc2ncnc3[nH]cnc23)cc(Cl)c(C)c1-c1ccc(NC(C)=O)cc1 (centres unmarked) [Example 27, N-{3′-chloro-6′-methoxy-2′-methyl-5′-[1-(9H-purin-6-ylamino)ethyl]biphenyl-4-yl}acetamide]
< 50	100 to 500	COc1c(C(C)Nc2ncnc3[nH]cnc23)cc(Cl)c(C)c1-c1cccc(F)c1 (centres unmarked) [Example 28, N-[1-(5-chloro-3′-fluoro-2-methoxy-6-methylbiphenyl-3-yl)ethyl]-9H-purin-6-amine]
< 50	100 to 500	COc1c(C(C)Nc2ncnc3[nH]cnc23)cc(Cl)c(C)c1-c1cc(F)cc(F)c1 (centres unmarked) [Example 29, N-[1-(5-chloro-3′,5′-difluoro-2-methoxy-6-methylbiphenyl-3-yl)ethyl]-9H-purin-6-amine]
< 50	100 to 500	COc1c(C(C)Nc2ncnc3[nH]cnc23)cc(Cl)c(C)c1-c1ccc(C#N)cc1 (centres unmarked) [Example 30, 3′-chloro-6′-methoxy-2′-methyl-5′[1-(9H-purin-6-ylamino)ethyl]biphenyl-4-carbonitrile]
< 50	< 100	COc1c(C(C)Nc2ncnc3[nH]cnc23)cc(Cl)c(C)c1-c1ccc(C(=O)NC2CC2)cc1 (centres unmarked) [Example 31, 3′-chloro-N-cyclopropyl-6′-methoxy-2′-methyl-5′-[1-(9H-purin-6-ylamino)ethyl]biphenyl-4-carboxamide]
< 50	< 100	COc1cncc(-c2c(C)c(Cl)cc(C(C)Nc3ncnc4[nH]cnc34)c2OC)c1 (centres unmarked) [Example 34, N-{1-[5-chloro-2-methoxy-3-(5-methoxypyridin-3-yl)-4-methylphenyl]ethyl}-9H-purin-6-amine]
50 to 100	> 1000	COc1c(C(C)Nc2ncnc3[nH]cnc23)cc(Cl)c(C)c1-c1cccc(Cl)c1 (centres unmarked) [Example 35, N-[1-(3′,5-dichloro-2-methoxy-6-methylbiphenyl-3-yl)ethyl]-9H-purin-6-amine]
< 50	< 100	COc1c(C(C)Nc2ncnc3[nH]cnc23)cc(Cl)c(C)c1-c1cncc(Cl)c1 (centres unmarked) [Example 36, N-{1-[5-chloro-3-(5-chloropyridin-3-yl)-2-methoxy-4-methylphenyl]ethyl}-9H-purin-6-amine]
< 50	< 100	CNC(=O)c1ccc(-c2c(C)c(Cl)cc(C(C)Nc3ncnc4[nH]cnc34)c2OC)cc1Cl (centres unmarked) [Example 37, 3,3′-dichloro-6′-methoxy-N,2′-dimethyl-5′-[1-(9H-purin-6-ylamino)ethyl]biphenyl-4-carboxamide]
100 to 250	> 1000	COc1c(C(C)Nc2ncnc3[nH]cnc23)cc(Cl)c(C)c1-c1ccc(C(F)(F)F)cc1 (centres unmarked) [Example 38, N-{1-[5-chloro-2-methoxy-6-methyl-4′-(trifluoromethyl)biphenyl-3-yl]ethyl}-9H-purin-6-amine]
100 to 250	> 1000	CCOc1ccc(-c2c(C)c(Cl)cc(C(C)Nc3ncnc4[nH]cnc34)c2OC)cc1F (centres unmarked) [Example 39, N-[1-(5-chloro-4′-ethoxy-3′-fluoro-2-methoxy-6-methylbiphenyl-3-yl)ethyl]-9H-purin-6-amine]
< 50	< 100	COc1c(C(C)Nc2ncnc3[nH]cnc23)cc(Cl)c(C)c1-c1cccc(C#N)c1 (centres unmarked) [Example 40, 3′-chloro-6′-methoxy-2′-methyl-5′-[1-(9H-purin-6-ylamino)ethyl]biphenyl-3-carbonitrile]
< 50	> 1000	COc1c(C(C)Nc2ncnc3[nH]cnc23)cc(Cl)c(C)c1-c1ccc(CC#N)cc1 (centres unmarked) [Example 41, {3′-chloro-6′-methoxy-2′-methyl-5′-[1-(9H-purin-6-ylamino)ethyl]biphenyl-4-yl}acetonitril]
< 50	100 to 500	COCc1ccc(-c2c(C)c(Cl)cc(C(C)Nc3ncnc4[nH]cnc34)c2OC)cc1 (centres unmarked) [Example 42, N-{1-[5-chloro-2-methoxy-4′-(methoxymethyl)-6-methylbiphenyl-3-yl]ethyl}-9H-purin-6-amine]
